A short description of data set [1]: Solubility of conjugates in organic solvents. Particulars: running text.
Data set [2] is described as follows: Solubility of Aβ-binding peptides in organic solvents. The following applies: for solubility of the peptide (in words): running text, organic solvents.
Description: After cleavage from the resin with TFA, the solubles of the crude peptides were determined (ca. 3-5 mg/0.5-1.0 ml) in various solvents (LiCl/DMF, DMF or NMP, and/or mixtures with DCM/MeOH/CH3 CN/dioxane).
^a conditions: 3-5 mg peptide/0.5-1.0 mL.
^b conditions tested; NMP, DMF, DMF/LiCl, THF, CH3 CN, DCM, MeOH,
In data set [3] the test system is cyclophilin (Cyp). Particulars: cited from earlier work.
For data set [4], the system named is nerve regeneration. The following applies: NGF must be present; Lyons et al. 1994, Steine et al. 1997; cited from earlier work.
Data set [5] addresses Aβ peptide (Homo sapiens, UniProt P05067). The following applies: Tjernberg et al. 1996; cited from earlier work.
Where [6] appears, read: Table 11.1, ca. 3-5 mg/0.5-1.0 ml.
The mark [7] stands for this setting: Table 11.1, crude peptides for CsA analog coupling, ca. 3-5 mg/0.5-1.0 ml.
The mark [8] stands for this setting: Table 11.3, 3-5 mg peptide/0.5-1.0 mL, all free lysines are TFA salts.

Entries after “also recorded” stand apart in the source; their conditions may differ. Peptide text beside a SMILES is read from it. * marks the point of attachment. X1 = CCC(C)(C)C(=O)C(=O)N1CCCC[C@H]1C(=O)O[C@H](CCc1ccccc1)c1cccc(OCC(=O)*)c1; NHTrityl = c1ccc(C(N*)(c2ccccc2)c2ccccc2)cc1; Acetyl(pyridin-2-yl) = O=C(Cc1ccccn1)*; Fmoc = O=C(OCC1c2ccccc2-c2ccccc21)*; ClZ = O=C(OCc1ccccc1Cl)*; Alloc = C=CCOC(=O)*

Consider 17 compounds from patent US6316405A, “Cyclosporin a conjugates and uses therefor” (Wisconsin Alumni Research Foundation, priority 1999, dated 2001).

Chain of Aβ peptide (P05067 672-713 limits assumed): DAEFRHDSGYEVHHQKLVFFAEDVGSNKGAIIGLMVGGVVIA

With `C=CCOC(=O)NCCCC[C@H](NC(=O)Cc1ccccn1)C(=O)N[C@@H](CC(C)C)C(=O)N[C@H](C(=O)N[C@@H](Cc1ccccc1)C(=O)N[C@@H](Cc1ccccc1)C(=O)N[C@@H](CCCCNC(=O)COc1cccc([C@@H](CCc2ccccc2)OC(=O)[C@@H]2CCCCN2C(=O)C(=O)C(C)(C)CC)c1)C(N)=O)C(C)C` [10.9, Pyridyl acetyl-K(alloc)LVFFK-NH2 /FKBP inhibitor conjugate] ({Acetyl(pyridin-2-yl)}-K(Alloc)LVFFK(X1)-NH2), in data set [1], the “solubility of the conjugate (in words)” value is reported as “methanol soluble salt”.

For `CC(=O)N[C@@H](CCC(N)=O)C(=O)N[C@@H](CCCCNC(=O)OCc1ccccc1Cl)C(=O)N[C@@H](CC(C)C)C(=O)N[C@H](C(=O)N[C@@H](Cc1ccccc1)C(=O)N[C@@H](Cc1ccccc1)C(=O)O)C(C)C` [11.23, Ac-QK(2Cl-Cbz)LVFF-OH], the “Solubility grade in LiCl/DMF or LiCl/NMP” value in data set [2] (setting [6]) is “medium”. Also, in data set [2], the “solubility of the peptide (in words)” value is given as “poorly soluble in all solvents including LiCl/DMF; also recorded: sparingly soluble in LiCl/DMF”.

Consider `CC(=O)N[C@@H](CCC(=O)NC(c1ccccc1)(c1ccccc1)c1ccccc1)C(=O)N[C@@H](CCCCNC(=O)OCc1ccccc1Cl)C(=O)N[C@@H](CC(C)C)C(=O)N[C@H](C(=O)N[C@@H](Cc1ccccc1)C(=O)N[C@@H](Cc1ccccc1)C(=O)O)C(C)C` [11.24, Ac-Q(Trt)K(2Cl-Cbz)LVFF-OH] (Ac-E(NHTrityl)K(ClZ)LVFF-OH), for which the “Solubility grade in LiCl/DMF or LiCl/NMP” value in data set [2] (setting [6]) is “medium”. Besides, the “solubility of the peptide (in words)” value in data set [2] is listed as “no improvement in solubility is observed”.

For the compound `CC(C)C[C@H](NC(=O)[C@H](CCCCNC(=O)OCc1ccccc1Cl)NC(=O)[C@H](CCC(=O)NC(c1ccccc1)(c1ccccc1)c1ccccc1)NC(=O)OCC1c2ccccc2-c2ccccc21)C(=O)N[C@H](C(=O)N[C@@H](Cc1ccccc1)C(=O)N[C@@H](Cc1ccccc1)C(=O)O)C(C)C` [11.25, Fmoc-Q(Trt)K(2Cl-Cbz)LVFF-OH] (Fmoc-E(NHTrityl)K(ClZ)LVFF-OH), in data set [2] (setting [7]), the “Solubility (solvent in which the peptide is soluble)” value was “Hot NMP”. Moreover, the “solubility of the peptide (in words)” value in data set [2] is “soluble in only hot NMP and remained cloudy in LiCl/DMF”.

In the case of `CC(C)C[C@H](NC(=O)[C@H](CCCCNC(=O)OCc1ccccc1Cl)NC(=O)OCC1c2ccccc2-c2ccccc21)C(=O)N[C@H](C(=O)N[C@@H](Cc1ccccc1)C(=O)N[C@@H](Cc1ccccc1)C(=O)O)C(C)C` [11.26, Fmoc-K(2Cl-Cbz)LVFF-OH], the “Solubility (solvent in which the peptide is soluble)” value in data set [2] (setting [7]) is on record as “DMF”. Moreover, the “solubility of the peptide (in words)” value in data set [2] was “completely soluble in DMF after a short period of vortexing”.

As for `CC(=O)N[C@@H](CCCCNC(=O)OCc1ccccc1Cl)C(=O)N[C@@H](CC(C)C)C(=O)N[C@H](C(=O)N[C@@H](Cc1ccccc1)C(=O)N[C@@H](Cc1ccccc1)C(=O)O)C(C)C` [11.27, Ac-K(2Cl-Cbz)LVFF-OH], the “Solubility (solvent in which the peptide is soluble)” value in data set [2] (setting [7]) is “DMF”. For the same compound, the “solubility of the peptide (in words)” value in data set [2] was “soluble in DMF but requires a longer vortexing period”; in data set [2] (listed as Ac-K(2Cl-Cbz)LVFF-OH) it was “increased solubility in DMF”.

Take `CC(C)C[C@H](NC(=O)[C@H](CCCCNC(=O)OCc1ccccc1Cl)NC(=O)[C@H](CCC(=O)O)NC(=O)OCC1c2ccccc2-c2ccccc21)C(=O)N[C@H](C(=O)N[C@@H](Cc1ccccc1)C(=O)N[C@@H](Cc1ccccc1)C(N)=O)C(C)C` [11.28, Fmoc-EK(2Cl-Cbz)LVFF-NH2] (Fmoc-EK(ClZ)LVFF-NH2): the “Solubility (solvent in which the peptide is soluble)” value in data set [2] (setting [7]) is given as “DMF”. Further, the “solubility of the peptide (in words)” value in data set [2] is reported as “soluble in neat DMF without added LiCl”.

For `CC(=O)N[C@@H](CCC(=O)O)C(=O)N[C@@H](CCCCNC(=O)OCc1ccccc1Cl)C(=O)N[C@@H](CC(C)C)C(=O)N[C@H](C(=O)N[C@@H](Cc1ccccc1)C(=O)N[C@@H](Cc1ccccc1)C(N)=O)C(C)C` [11.29, Ac-EK(2Cl-Cbz)LVFF-NH2] (Ac-EK(ClZ)LVFF-NH2), the “Solubility (solvent in which the peptide is soluble)” value in data set [2] (setting [7]) is on record as “LiCl/DMF”. In addition, the “solubility of the peptide (in words)” value is recorded as “completely soluble only in LiCl/DMF” in data set [2] and “increased solubility in DMF” in data set [2] (listed as Ac-EK(2Cl-Cbz)LVFF-NH2).

As to `C=CCOC(=O)NCCCC[C@H](NC(=O)[C@H](CCCCN)NC(=O)OCC1c2ccccc2-c2ccccc21)C(=O)N[C@@H](CC(C)C)C(=O)N[C@H](C(=O)N[C@@H](Cc1ccccc1)C(=O)N[C@@H](Cc1ccccc1)C(N)=O)C(C)C` [11.35, Fmoc-KK(Alloc)LVFF-NH2] (Fmoc-KK(Alloc)LVFF-NH2), in data set [2] (setting [8]), the “Solubility grade in LiCl/DMF or LiCl/NMP” value is listed as “medium”. Also, in data set [2], the “solubility of the peptide (in words)” value is “insoluble in DMF/LiCl”.

Consider `C=CCOC(=O)NCCCC[C@H](NC(=O)OCC1c2ccccc2-c2ccccc21)C(=O)N[C@@H](CC(C)C)C(=O)N[C@H](C(=O)N[C@@H](Cc1ccccc1)C(=O)N[C@@H](Cc1ccccc1)C(=O)N[C@@H](CCCCN)C(N)=O)C(C)C` [11.36, Fmoc-K(Alloc)LVFFK-NH2] (Fmoc-K(Alloc)LVFFK-NH2), for which, in data set [2] (setting [8]), the “Solubility (solvent in which the peptide is soluble)” value is “LiCl/DMF”. Besides, in data set [2], the “solubility of the peptide (in words)” value is recorded as “completely soluble in LiCl/DMF”.

As for `CC(C)C[C@H](NC(=O)[C@H](CCCCN)NC(=O)OCC1c2ccccc2-c2ccccc21)C(=O)N[C@H](C(=O)N[C@@H](Cc1ccccc1)C(=O)N[C@@H](Cc1ccccc1)C(N)=O)C(C)C` [11.37, Fmoc-KLVFF-NH2], the “Solubility (solvent in which the peptide is soluble)” value in data set [2] (setting [8]) is recorded as “DMF”. In addition, the “solubility of the peptide (in words)” value in data set [2] is reported as “completely soluble in DMF”.

As to `CC(C)C[C@H](NC(=O)[C@H](CCCCN)NC(=O)Cc1ccccn1)C(=O)N[C@H](C(=O)N[C@@H](Cc1ccccc1)C(=O)N[C@@H](Cc1ccccc1)C(N)=O)C(C)C` [11.39, Pyridylacetate-KLVFF-NH2], in data set [2] (setting [8]), the “Solubility (solvent in which the peptide is soluble)” value is recorded as “DMF”. In data set [2], the “solubility of the peptide (in words)” value is listed as “completely soluble in DMF as the double TFA salts”.

On to `C=CCOC(=O)NCCCC[C@H](NC(=O)Cc1ccccn1)C(=O)N[C@@H](CC(C)C)C(=O)N[C@H](C(=O)N[C@@H](Cc1ccccc1)C(=O)N[C@@H](Cc1ccccc1)C(=O)N[C@@H](CCCCN)C(N)=O)C(C)C` [11.40, Pyiidylacetate-K(Alloc)LVFFK-NH2] ({Acetyl(pyridin-2-yl)}-K(Alloc)LVFFK-NH2), for which the “Solubility (solvent in which the peptide is soluble)” value in data set [2] (setting [8]) is reported as “DMF”. In data set [2], the “solubility of the peptide (in words)” value was “completely soluble in DMF as the double TFA salts”.

`C=CCOC(=O)NCCCC[C@H](NC(=O)OCC1c2ccccc2-c2ccccc21)C(=O)N[C@@H](CC(C)C)C(=O)N[C@H](C(=O)N[C@@H](Cc1ccccc1)C(=O)N[C@@H](Cc1ccccc1)C(=O)N[C@@H](CCCCNC(=O)COc1cccc([C@@H](CCc2ccccc2)OC(=O)[C@@H]2CCCCN2C(=O)C(=O)C(C)(C)CC)c1)C(N)=O)C(C)C` [11.41] (Fmoc-K(Alloc)LVFFK(X1)-NH2): the “solubility of the conjugate (in words)” value in data set [1] is given as “not completely soluble in DCM, DCM/MeOH, or MeOH”.

In the case of `C=CC[C@@H]1/C=C(\C)C[C@H](C)C[C@H](OC)[C@H]2O[C@@](O)(C(=O)C(=O)N3CCCC[C@H]3C(=O)O[C@H](/C(C)=C/[C@@H]3CC[C@@H](O)[C@H](OC)C3)[C@H](C)[C@@H](O)CC1=O)[C@H](C)C[C@@H]2OC` [FK506], in data set [3], the “binding to cyclophilin (in words)” value is reported as “does not bind to Cyp”. Also, the “significant neurotrophic activity at concentrations as low as” value in data set [4] is given as 1 pM.

On to Ac-QKLVFF-NH2, for which, in data set [5], the “fibril formation (in words)” value was “binds to and inhibits fibril formation”.

Consider [MeLeu(3-OH)^1, MeAla^4,6 ]-CsA, for which the “binding to cyclophilin (in words)” value in data set [3] is reported as “retains tight-binding to cyclophilin”.
